The assay addresses human recombinant LRRK2 protein (Homo sapiens (Human), UniProt Q5S007). The assay is described as follows: LRRK2 Kinase Activity Assay (ADP-Glo). The class given is biochemical. The note with it: LRRK2 wt; LRRKtide peptide and ATP substrates; 1h-incubation at 37° C. The method, then:
LRRK2 Kinase reactions were carried out in 384-well white polystyrene plates in a final volume of 6 μl using ADP-Glo™ Kinase Assay kit (Promega Corp.). Compound and substrates (LRRKtide peptide and ATP) in assay buffer were first dispensed in wells. Kinase reaction was then started by the addition of human recombinant LRRK2 protein. After 1h-incubation at 37° C., the enzymatic reaction was stopped by the addition of 6 μl of ADP-Glo Reagent-1 and an additional 40-minutes incubation at 23° C. (residual ATP depletion). A final 30-minutes incubation after 12 μL reagent-2 addition (ADP to ATP conversion and luciferin/luciferase reaction) was performed before luminescent signal acquisition (EnVision™ multimode plate reader-PerkinElmer, Inc.). Data from 10 individual concentrations of tested compounds (N=2) were fitted (XLfit™-ID Business Solutions Ltd) to deliver IC50s (compound concentration leading to 50% inhibition of reference enzymatic activity).
The compounds are dissolved to 5 mM in DMSO. When needed, solutions are sonicated in a bath sonicator.
Table 2 provides the IC50 values of the compounds according to the invention, obtained using the above-mentioned kinase assay. Activities are represented as +++, ++ and +, having the following meanings: • +++ means IC50<10 nM • ++ means 10 nM≤IC50<100 nM • + means 100 nM≤IC50<1 μM.
(ADP-Glo turns the ADP formed in a reaction into a luminescent signal.)

SMILES strings stand for the structures. pIC50: −log10 of the molar value. A value given as a limit tells only on which side of the number the result lay.

human recombinant LRRK2 protein, sequence (Q5S007 whole entry): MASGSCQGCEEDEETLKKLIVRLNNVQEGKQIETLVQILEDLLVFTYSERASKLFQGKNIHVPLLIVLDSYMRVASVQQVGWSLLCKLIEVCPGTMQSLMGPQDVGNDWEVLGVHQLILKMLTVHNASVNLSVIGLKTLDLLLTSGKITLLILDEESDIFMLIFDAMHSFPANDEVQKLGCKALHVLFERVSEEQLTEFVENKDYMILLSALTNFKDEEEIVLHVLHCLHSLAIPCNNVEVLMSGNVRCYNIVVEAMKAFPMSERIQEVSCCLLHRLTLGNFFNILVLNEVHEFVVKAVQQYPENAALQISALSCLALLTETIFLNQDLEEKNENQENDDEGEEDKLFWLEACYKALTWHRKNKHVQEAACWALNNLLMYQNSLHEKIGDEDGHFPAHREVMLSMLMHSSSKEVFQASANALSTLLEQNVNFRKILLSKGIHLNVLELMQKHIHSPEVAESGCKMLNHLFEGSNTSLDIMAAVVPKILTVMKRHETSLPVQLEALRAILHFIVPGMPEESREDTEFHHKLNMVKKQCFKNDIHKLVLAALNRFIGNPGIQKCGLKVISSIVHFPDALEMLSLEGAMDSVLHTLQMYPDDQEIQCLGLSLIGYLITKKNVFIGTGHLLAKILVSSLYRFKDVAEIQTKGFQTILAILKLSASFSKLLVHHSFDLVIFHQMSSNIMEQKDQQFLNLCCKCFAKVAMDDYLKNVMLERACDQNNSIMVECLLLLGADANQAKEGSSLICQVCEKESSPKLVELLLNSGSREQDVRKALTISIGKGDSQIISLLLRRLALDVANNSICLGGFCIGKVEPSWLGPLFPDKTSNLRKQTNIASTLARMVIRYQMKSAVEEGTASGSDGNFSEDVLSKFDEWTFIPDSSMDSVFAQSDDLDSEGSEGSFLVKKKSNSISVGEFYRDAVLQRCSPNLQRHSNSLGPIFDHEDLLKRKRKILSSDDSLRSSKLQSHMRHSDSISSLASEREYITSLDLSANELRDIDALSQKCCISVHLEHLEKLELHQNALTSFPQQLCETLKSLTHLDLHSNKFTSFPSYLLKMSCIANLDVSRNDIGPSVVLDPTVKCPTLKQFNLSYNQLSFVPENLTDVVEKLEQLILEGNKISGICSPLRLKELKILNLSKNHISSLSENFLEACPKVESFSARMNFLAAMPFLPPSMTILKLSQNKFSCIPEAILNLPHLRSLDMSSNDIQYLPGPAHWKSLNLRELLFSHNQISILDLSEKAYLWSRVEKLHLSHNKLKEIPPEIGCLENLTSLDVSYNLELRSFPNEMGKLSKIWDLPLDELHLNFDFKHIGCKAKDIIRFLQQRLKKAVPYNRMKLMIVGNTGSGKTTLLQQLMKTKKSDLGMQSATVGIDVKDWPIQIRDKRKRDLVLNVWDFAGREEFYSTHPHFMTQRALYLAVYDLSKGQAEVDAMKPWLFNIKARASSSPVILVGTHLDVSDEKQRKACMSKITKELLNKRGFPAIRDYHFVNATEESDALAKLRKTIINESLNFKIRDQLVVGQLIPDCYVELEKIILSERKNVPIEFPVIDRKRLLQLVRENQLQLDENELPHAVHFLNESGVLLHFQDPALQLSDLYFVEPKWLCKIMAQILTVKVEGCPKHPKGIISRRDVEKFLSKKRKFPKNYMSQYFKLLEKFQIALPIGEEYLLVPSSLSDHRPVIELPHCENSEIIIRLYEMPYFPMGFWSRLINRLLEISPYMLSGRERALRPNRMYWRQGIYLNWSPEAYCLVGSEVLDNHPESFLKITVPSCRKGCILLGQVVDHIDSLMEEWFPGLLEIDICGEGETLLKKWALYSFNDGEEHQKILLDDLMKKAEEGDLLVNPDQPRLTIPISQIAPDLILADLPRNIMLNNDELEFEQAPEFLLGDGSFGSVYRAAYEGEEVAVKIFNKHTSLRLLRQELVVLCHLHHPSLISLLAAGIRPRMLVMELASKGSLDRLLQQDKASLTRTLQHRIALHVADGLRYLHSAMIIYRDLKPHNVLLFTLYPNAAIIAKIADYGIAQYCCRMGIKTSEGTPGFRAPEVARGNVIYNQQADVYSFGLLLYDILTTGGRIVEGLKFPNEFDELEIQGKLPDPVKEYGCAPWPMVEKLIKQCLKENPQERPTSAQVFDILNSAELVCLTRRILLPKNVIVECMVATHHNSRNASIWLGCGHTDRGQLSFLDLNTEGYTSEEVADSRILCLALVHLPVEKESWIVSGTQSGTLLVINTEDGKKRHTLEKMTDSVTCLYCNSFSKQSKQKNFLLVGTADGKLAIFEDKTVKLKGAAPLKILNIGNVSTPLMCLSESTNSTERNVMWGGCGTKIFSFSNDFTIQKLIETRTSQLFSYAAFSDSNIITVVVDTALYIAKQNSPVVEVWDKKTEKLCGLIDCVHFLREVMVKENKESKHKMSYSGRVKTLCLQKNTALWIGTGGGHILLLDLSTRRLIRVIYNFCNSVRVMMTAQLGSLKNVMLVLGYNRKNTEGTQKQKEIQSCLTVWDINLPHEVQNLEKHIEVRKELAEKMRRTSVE

On to `C[C@H]1CCNC(=O)OCc2cccc(c2)-c2n[nH]c3ccc(cc23)O1` [Example 62, (13S)-13-methyl-8,14-dioxa-10,19,20-triazatetracyclo[13.5.2.1^2,6.0^18,21]tricosa-1(20),2(23),3,5,15(22),16,18(21)-heptaen-9-one], for which the pIC50 is more than 8.00.
As for `COc1ccc2cc1COC(=O)NCCCOc1ccc3[nH]nc-2c3c1` [Example 19, 5-methoxy-8,14-dioxa-10,19,20-triazatetracyclo[13.5.2.1^2,6.0^18,21]tricosa-1(20),2,4,6(23),15,17,21-heptaen-9-one], the figure is more than 8.00; as for `O=C1NCCCOc2ccc3[nH]nc(c3c2)-c2cc(cc(N3CCC(N4CCOCC4)CC3)c2)CO1` [Example 38, 4-[4-(morpholin-4-yl)piperidin-1-yl]-8,14-dioxa-10,19,20-triazatetracyclo[13.5.2.1^2,6.0^18,21]tricosa-1(20),2,4,6(23),15,17,21-heptaen-9-one], more than 8.00.
As for `O=C1NCCCOc2ccc3[nH]nc(c3c2)-c2ccnc(c2)CO1` [Example 7, 8,14-dioxa-5,10,19,20-tetraazatetracyclo[13.5.2.1^2,6.0^18,21]tricosa-1(20),2,4, 6(23),15,17,21-heptaen-9-one], the figure is more than 8.00; as for `O=C1NCCCOc2ccc3[nH]nc(c3c2)-c2cc(cc(N3CCC4(COC4)C3)c2)CO1` [Example 14, 4-{2-oxa-6-azaspiro[3.4]octan-6-yl}-8,14-dioxa-10,19,20-triazatetracyclo[13.5.2.1^2,6.0^18,21]tricosa-1(20),2,4,6(23),15,17,21-heptaen-9-one], more than 8.00.
To `O=C1NCCCOc2ccc3[nH]nc(c3c2)-c2cnn(c2)C(C2CCOCC2)CO1` (stereo not shown) [Example 118, 6-(oxan-4-yl)-8,14-dioxa-4,5,10,19,20-pentaazatetracyclo[13.5.2.1^2,5.0^18,21]tricosa-1(20),2(23),3,15,17,21-hexaen-9-one] belongs 6.00 to 7.00; to `C[C@@H]1CCNC(=O)OCc2cc(ccc2C#N)-c2n[nH]c3ccc(cc23)O1` [Example 128, (13R)-13-methyl-9-oxo-8,14-dioxa-10,19,20-triazatetracyclo[13.5.2.1^2,6. 0^18,21]tricosa-1(20),2,4,6(23),15,17,21-heptaene-5-carbonitrile], more than 8.00.
`O=C1NCCCOc2ccc3[nH]nc(c3c2)-c2cc(cc(C3=CCNCC3)c2)CO1` [Example 82, 4-(1,2,3,6-tetrahydropyridin-4-yl)-8,14-dioxa-10,19,20-triazatetracyclo[13.5.2.1^2,6.0^18,21]tricosa-1(20),2(23),3,5,15(22),16,18(21)-heptaen-9-one]: the pIC50 was more than 8.00.
As for `COCCN(C)c1cc2cc(c1)-c1n[nH]c3ccc(cc13)OCCCNC(=O)OC2` [Example 26, 4-[(2-methoxyethyl)(methyl)amino]-8,14-dioxa-10,19,20-triazatetracyclo[13.5.2.1^2,6.0^18,21]tricosa-1(20),2,4,6(23),15,17,21-heptaen-9-one], the figure is more than 8.00.
Regarding `CCC1CCOc2ccc3[nH]nc(c3c2)-c2cccc(c2)COC(=O)N1` (stereo not shown) [Example 87, 11-ethyl-8,14-dioxa-10,19,20-triazatetracyclo[13.5.2.1^2,6.0^18,21]tricosa-1(20),2(23),3,5,15(22),16,18(21)-heptaen-9-one], the pIC50 was more than 8.00.
To `Cn1nc2cc1CCOC(=O)NCCCOc1ccc3[nH]nc-2c3c1` [Example 145, 4-methyl-8,14-dioxa-3,4,10,19,20-pentaazatetracyclo[13.5.2.1^2,5.0^18,21]tricosa-1(20),2,5(23),15(22),16,18(21)-hexaen-9-one] belongs 6.00 to 7.00; to `CC1OC(=O)NCCCOc2ccc3[nH]nc(c3c2)-c2cccc1n2` (stereo not shown) [Example 111, 7-methyl-8,14-dioxa-10,19,20,23-tetraazatetracyclo[13.5.2.1^2,6.0^18,21]tricosa-1(20),2,4,6(23),15,17,21-heptaen-9-one], 7.00 to 8.00.
As for `C[C@H]1OC(=O)NCCCOc2ccc3[nH]nc(c3c2)-c2cc(F)cc1c2` (single isomer, unassigned) [Example 109, (7R)- or (7S)-4-fluoro-7-methyl-8,14-dioxa-10,19,20-triazatetracyclo[13.5.2.1^2,6.0^18,21]tricosa-1(20),2,4,6(23),15,17,21-heptaen-9-one], the figure is more than 8.00; as for `CC1CCOc2ccc3[nH]nc(c3c2)-c2cnn(c2)CCOC(=O)N1` (stereo not shown) [Example 85, 11-methyl-8,14-dioxa-4,5,10,19,20-pentaazatetracyclo[13.5.2.1^2,5.0^18,21]tricosa-1(20),2(23),3,15(22),16,18(21)-hexaen-9-one], 7.00 to 8.00.
To `O=C1NCCCOc2ccc3[nH]nc(c3c2)-n2cnc(c2)CCO1` [Example 126, 8,14-dioxa-2,4,10,19,20-pentaazatetracyclo[13.5.2.1^2,5.0^18,21]tricosa-1(20),3,5(23),15(22),16,18(21)-hexaen-9-one] belongs 7.00 to 8.00; to `CCc1cc2nn1CCOC(=O)NCCCOc1ccc3[nH]nc-2c3c1` [Example 122, 4-ethyl-8,14-dioxa-5,10,19,20,23-pentaazatetracyclo[13.5.2.1^2,5.0^18,21]tricosa-1(20),2(23),3,15,17,21-hexaen-9-one], more than 8.00.
For the compound `O=C1NCCCOc2ccc3[nH]nc(c3c2)-c2cc(cc(N3CCOCC3=O)c2)CO1` [Example 73, 4-(3-oxomorpholin-4-yl)-8,14-dioxa-10,19,20-triazatetracyclo[13.5.2. 1^2,6.0^18,21]tricosa-1(20),2(23),3,5,15(22),16,18(21)-heptaen-9-one], the pIC50 is more than 8.00.
Consider `O=C1NCCCOc2ccc3[nH]nc(c3c2)-c2csc(n2)CO1` [Example 147, 7,13-dioxa-4-thia-9,18,19,22-tetraazatetracyclo[12.5.2.1^2,5.0^17,20]docosa-1(19),2,5(22),14(21),15,17(20)-hexaen-8-one], for which the pIC50 was more than 8.00.
In the case of `C[C@@H]1CCNC(=O)OCc2cc(c[nH]c2=O)-c2n[nH]c3ccc(cc23)O1` [Example 144, (13R)-13-methyl-8,14-dioxa-4,10,19,20-tetraazatetracyclo[13.5.2.1^2,6.0^18,21]tricosa-1(20),2,6(23),15,17,21-hexaene-5,9-dione], the pIC50 was more than 8.00.
As for `O=C1NCCCOc2ccc3[nH]nc(c3c2)-c2cc(cc(CN3CCCC3)c2)CO1` [Example 42, 4-[(pyrrolidin-1-yl)methyl]-8,14-dioxa-10,19,20-triazatetracyclo[13.5.2.1^2,6.0^18,21]tricosa-1(20),2,4,6(23),15,17,21-heptaen-9-one], the figure is more than 8.00; as for `COc1ncc2cc1COC(=O)NCC[C@@H](C)Oc1ccc3[nH]nc-2c3c1` [Example 143, (13R)-5-methoxy-13-methyl-8,14-dioxa-4,10,19,20-tetraazatetracyclo[13.5.2.1^2,6.0^18,21]tricosa-1(20),2,4,6(23),15,17,21-heptaen-9-one], more than 8.00.
To `CC(C)Oc1cc2cc(c1)-c1n[nH]c3ccc(cc13)OCCCNC(=O)OC2` [Example 55, 4-(propan-2-yloxy)-8,14-dioxa-10,19,20-triazatetracyclo[13.5.2.1^2,6.0^18,21]tricosa-1(20),2,4,6(23),15,17,21-heptaen-9-one] belongs more than 8.00; to `CC1CCNC(=O)OCc2cccc(n2)-c2n[nH]c3ccc(cc23)O1` (stereo not shown) [Example 92, 13-methyl-8,14-dioxa-10,19,20,23-tetraazatetracyclo[13.5.2.1^2,6.0^18,21]tricosa-1(20),2(23),3,5,15(22),16,18(21)-heptaen-9-one], more than 8.00; to `O=C1NCCCOc2ccc3[nH]nc(c3c2)-c2cc(cc(N3CCCC3=O)c2)CO1` [Example 74, 4-(2-oxopyrrolidin-1-yl)-8,14-dioxa-10,19,20-triazatetracyclo[13.5.2. 1^2,6.0^18,21]tricosa-1(20),2(23),3,5,15(22),16,18(21)-heptaen-9-one], more than 8.00.
To `C[C@@H]1CCNC(=O)OCc2cncc(n2)-c2n[nH]c3ccc(cc23)O1` [Example 133, (13R)-13-methyl-8,14-dioxa-4,10,19,20,23-pentaazatetracyclo[13.5.2.1^2,6.0^18,21]tricosa-1(20),2,4,6(23),15,17,21-heptaen-9-one] belongs more than 8.00; to `Cc1cc2cc(c1F)C(C)OC(=O)NCCCOc1ccc3[nH]nc-2c3c1` (stereo not shown) [Example 90, 5-fluoro-4,7-dimethyl-8,14-dioxa-10,19,20-triazatetracyclo[13.5.2.1^2,6.0^18,21]tricosa-1(20),2(23),3,5,15(22),16,18(21)-heptaen-9-one], more than 8.00; to `O=C1NCCCOc2ccc3[nH]nc(c3c2)-c2ccc(C3CC3)c(c2)CO1` [Example 69, 5-cyclopropyl-8,14-dioxa-10,19,20-triazatetracyclo[13.5.2.1^2,6.0^18,21]tricosa-1(20),2,4,6(23),15,17,21-heptaen-9-one], more than 8.00.
With `CC1COC(=O)NCCCOc2ccc3[nH]nc(c3c2)-c2cnn1c2` (stereo not shown) [Example 110, 6-methyl-8,14-dioxa-4,5,10,19,20-pentaazatetracyclo[13.5.2.1^2,5.0^18,21]tricosa-1(20),2(23),3,15,17,21-hexaen-9-one], the pIC50 was more than 8.00.

What is called pIC50 is −log10 of the IC50, conventionally taken in molar units.

Values taken from patent publication US20230357269A1 (LES LABORATOIRES SERVIER, priority 2020, published 2023).
